{"source": "paper PMC7242238", "about": "(Clinical Drug Investigation, 2020)", "key": {"healthy subjects [1]": {"system": "healthy subjects", "experiment": "CYP3A inhibitors study Cohort 1: safety assessments", "type": "in vivo, human", "settings": "of 14 subjects, by treatment period"}, "[2]": {"settings": "12 healthy male subjects; single oral 2-mg doses of 14C-naldemedine; cited from earlier work"}, "[3]": {"type": "in vivo, human"}, "[4]": {"type": "in vivo, human", "settings": "for CL/F / AUC(0-inf) / AUC(0-t) / half-life / k el: Cohort 1: naldemedine 0.2 mg alone or with itraconazole 200 mg, n = 14; for AUC(0-inf): AUC0–inf; for AUC(0-t): AUC0–last; for half-life: t1/2,z; for k el: λz"}, "[5]": {"type": "in vivo, human", "settings": "for CL/F / AUC(0-inf) / AUC(0-t) / half-life / k el: Cohort 2: naldemedine 0.2 mg alone or with fluconazole 200 mg, n = 14; for AUC(0-inf): AUC0–inf; for AUC(0-t): AUC0–last; for half-life: t1/2,z; for k el: λz"}, "[6]": {"experiment": "CYP3A inducer study: pharmacokinetics of naldemedine alone or with rifampin", "type": "in vivo, human", "settings": "for AUC(0-inf): AUC0–inf; for AUC(0-t): AUC0–last; for half-life: t1/2,z; for k el: λz"}, "healthy subjects [7]": {"system": "healthy subjects", "experiment": "P-gp inhibitor study: safety assessments", "type": "in vivo, human", "settings": "of 13 subjects"}, "healthy subjects [8]": {"system": "healthy subjects", "experiment": "CYP3A inhibitors study Cohort 2: safety assessments", "type": "in vivo, human", "settings": "of 14 subjects, by treatment period"}, "healthy subjects [9]": {"system": "healthy subjects", "settings": "cited from earlier work"}, "[10]": {"system": "spontaneous bowel movements", "settings": "cited from earlier work"}, "healthy subjects [11]": {"system": "healthy subjects", "experiment": "CYP3A inducer study: safety assessments", "settings": "of 14 subjects; by treatment period"}, "[12]": {"settings": "coadministration of cyclosporine 600 mg vs naldemedine 0.4 mg alone"}, "[13]": {"settings": "male, human, plasma, oral, 0.4 mg"}, "[14]": {"settings": "male, human, plasma, po, 0.4 mg"}, "[15]": {"settings": "coadministration of itraconazole vs naldemedine 0.2 mg alone"}, "[16]": {"settings": "human, plasma, oral, 0.2 mg, geometric mean (CV %)"}, "[17]": {"settings": "human, plasma, oral, 0.2 mg, mean (SD)"}, "[18]": {"settings": "coadministration of fluconazole vs naldemedine 0.2 mg alone"}, "[19]": {"settings": "coadministration of rifampin 600 mg QD vs naldemedine 0.2 mg alone"}, "[20]": {"settings": "human, plasma, oral, 0.2 mg, naldemedine 0.2 mg alone or with rifampin 600 mg QD, n = 14, geometric mean (CV %)"}, "[21]": {"settings": "human, plasma, oral, 0.2 mg, naldemedine 0.2 mg alone or with rifampin 600 mg QD, n = 14, mean (SD)"}}, "note": "Where two headings read alike, the source gives them in different places.", "data": [{"molecule": "CCC(C)n1ncn(-c2ccc(N3CCN(c4ccc(OCC5COC(Cn6cncn6)(c6ccc(Cl)cc6Cl)O5)cc4)CC3)cc2)c1=O", "note": "(stereo not drawn) [itraconazole, reference compound]", "values": [{"measurement": "subjects with TEAEs", "setting": "healthy subjects [1]", "value": 14.3, "unit": "%"}]}, {"molecule": "CC(C)(NC(=O)C1=C(O)[C@@H]2Oc3c(O)ccc4c3[C@@]23CCN[C@H](C4)[C@]3(O)C1)c1nc(-c2ccccc2)no1", "note": "[nor-naldemedine]", "values": [{"measurement": "share of the systemic exposure of unchanged naldemedine", "setting": "[2]", "value": "9–13%"}]}, {"molecule": "CC(C)(NC(=O)C1=C(O)[C@@H]2Oc3c(O)ccc4c3[C@@]23CCN(CC2CC2)[C@H](C4)[C@]3(O)C1)c1nc(-c2ccccc2)no1", "note": "[Naldemedine]", "values": [{"measurement": "effect of coadministration on median naldemedine Tmax", "setting": "[3]; coadministration of cyclosporine", "value": "not notably affected"}, {"measurement": "increase of naldemedine AUC0–inf", "setting": "[3]; [12]", "value": 1.78, "unit": "fold"}, {"measurement": "increase of naldemedine AUC0–last", "setting": "[3]; [12]", "value": 1.79, "unit": "fold"}, {"measurement": "increase of naldemedine Cmax", "setting": "[3]; [12]", "value": 1.45, "unit": "fold"}, {"measurement": "AUC(0-inf)", "setting": "[3]; [13]", "value": 38.9, "unit": "ng·h/mL"}, {"measurement": "AUC(0-t)", "setting": "[3]; [13]", "value": 38.6, "unit": "ng·h/mL"}, {"measurement": "Cmax", "setting": "[3]; [13]", "value": 4.86, "unit": "ng/mL"}, {"measurement": "half-life", "setting": "[3]; [13]", "value": 10.6, "unit": "h"}, {"measurement": "k el", "setting": "[3]; [13]", "value": "1.81e-05", "unit": "s⁻¹"}, {"measurement": "AUC(0-inf)", "setting": "[3]; [14]", "value": 39.5, "unit": "ng·h/mL"}, {"measurement": "AUC(0-t)", "setting": "[3]; [14]", "value": 39.1, "unit": "ng·h/mL"}, {"measurement": "Cmax", "setting": "[3]; [14]", "value": 4.9, "unit": "ng/mL"}, {"measurement": "Tmax", "setting": "[3]; [14]", "value": 0.75, "unit": "h"}, {"measurement": "half-life", "setting": "[3]; [14]", "value": 10.7, "unit": "h"}, {"measurement": "k el", "setting": "[3]; [14]", "value": "1.82e-05", "unit": "s⁻¹"}, {"measurement": "CL/F", "setting": "[3]; naldemedine 0.4 mg alone or with cyclosporine 600 mg, n = 13, geometric mean (CV %)", "value": "10.3 (17.3) L/h"}, {"measurement": "CL/F", "setting": "[4]; geometric mean (CV %)", "value": "7.41 (37.7) L/h"}, {"measurement": "CL/F", "setting": "[4]; mean (SD)", "value": "8.03 (4.39) L/h"}, {"measurement": "effect of coadministration on median naldemedine Tmax", "setting": "[4]; coadministration of itraconazole", "value": "not notably affected"}, {"measurement": "increase of naldemedine AUC0–inf", "setting": "[4]; [15]", "value": 2.91, "unit": "fold"}, {"measurement": "increase of naldemedine AUC0–last", "setting": "[4]; [15]", "value": 2.65, "unit": "fold"}, {"measurement": "increase of naldemedine Cmax", "setting": "[4]; [15]", "value": 1.12, "unit": "fold"}, {"measurement": "Cmax", "setting": "[4]; human, plasma, oral, 0.2 mg", "value": 3.56, "unit": "ng/mL"}, {"measurement": "Tmax", "setting": "[4]; human, plasma, oral, 0.2 mg", "value": 0.75, "unit": "h"}, {"measurement": "AUC(0-inf)", "setting": "[4]; [16]", "value": 27, "unit": "ng·h/mL"}, {"measurement": "AUC(0-inf)", "setting": "[4]; [17]", "value": 28.3, "unit": "ng·h/mL"}, {"measurement": "AUC(0-t)", "setting": "[4]; [16]", "value": 26.7, "unit": "ng·h/mL"}, {"measurement": "AUC(0-t)", "setting": "[4]; [17]", "value": 28.1, "unit": "ng·h/mL"}, {"measurement": "half-life", "setting": "[4]; [16]", "value": 10.4, "unit": "h"}, {"measurement": "half-life", "setting": "[4]; [17]", "value": 10.7, "unit": "h"}, {"measurement": "k el", "setting": "[4]; [16]", "value": "1.85e-05", "unit": "s⁻¹"}, {"measurement": "k el", "setting": "[4]; [17]", "value": "1.9e-05", "unit": "s⁻¹"}, {"measurement": "Cmax", "setting": "[4]; human, plasma, po, 0.2 mg", "value": 3.77, "unit": "ng/mL"}, {"measurement": "CL/F", "setting": "[5]; geometric mean (CV %)", "value": "7.36 (16.5) L/h"}, {"measurement": "CL/F", "setting": "[5]; mean (SD)", "value": "7.45 (1.16) L/h"}, {"measurement": "effect of coadministration on median naldemedine Tmax", "setting": "[5]; coadministration of fluconazole", "value": "not notably affected"}, {"measurement": "increase of naldemedine AUC0–inf", "setting": "[5]; [18]", "value": 1.90, "unit": "fold"}, {"measurement": "increase of naldemedine AUC0–last", "setting": "[5]; [18]", "value": 1.88, "unit": "fold"}, {"measurement": "increase of naldemedine Cmax", "setting": "[5]; [18]", "value": 1.38, "unit": "fold"}, {"measurement": "Cmax", "setting": "[5]; human, plasma, oral, 0.2 mg", "value": 3.48, "unit": "ng/mL"}, {"measurement": "Tmax", "setting": "[5]; human, plasma, oral, 0.2 mg", "value": 1, "unit": "h"}, {"measurement": "AUC(0-inf)", "setting": "[5]; [16]", "value": 27.2, "unit": "ng·h/mL"}, {"measurement": "AUC(0-inf)", "setting": "[5]; [17]", "value": 27.5, "unit": "ng·h/mL"}, {"measurement": "AUC(0-t)", "setting": "[5]; [16]", "value": 26.9, "unit": "ng·h/mL"}, {"measurement": "AUC(0-t)", "setting": "[5]; [17]", "value": 27.3, "unit": "ng·h/mL"}, {"measurement": "half-life", "setting": "[5]; [16]", "value": 10.1, "unit": "h"}, {"measurement": "half-life", "setting": "[5]; [17]", "value": 10.4, "unit": "h"}, {"measurement": "k el", "setting": "[5]; [16]", "value": "1.9e-05", "unit": "s⁻¹"}, {"measurement": "k el", "setting": "[5]; [17]", "value": "1.95e-05", "unit": "s⁻¹"}, {"measurement": "Cmax", "setting": "[5]; human, plasma, po, 0.2 mg", "value": 3.57, "unit": "ng/mL"}, {"measurement": "effect of coadministration on median naldemedine Tmax", "setting": "[6]; coadministration of rifampin", "value": "not notably affected"}, {"measurement": "decrease of naldemedine AUC0–last", "setting": "[6]; [19]", "value": 83, "unit": "%"}, {"measurement": "decrease of naldemedine Cmax", "setting": "[6]; [19]", "value": 38, "unit": "%"}, {"measurement": "Cmax", "setting": "[6]; human, plasma, oral, 0.2 mg", "value": 2.72, "unit": "ng/mL"}, {"measurement": "Tmax", "setting": "[6]; human, plasma, oral, 0.2 mg", "value": 1, "unit": "h"}, {"measurement": "AUC(0-inf)", "setting": "[6]; [20]", "value": 21.8, "unit": "ng·h/mL"}, {"measurement": "AUC(0-inf)", "setting": "[6]; [21]", "value": 22.1, "unit": "ng·h/mL"}, {"measurement": "AUC(0-t)", "setting": "[6]; [20]", "value": 21.5, "unit": "ng·h/mL"}, {"measurement": "AUC(0-t)", "setting": "[6]; [21]", "value": 21.8, "unit": "ng·h/mL"}, {"measurement": "half-life", "setting": "[6]; [20]", "value": 11.7, "unit": "h"}, {"measurement": "half-life", "setting": "[6]; [21]", "value": 11.9, "unit": "h"}, {"measurement": "k el", "setting": "[6]; [20]", "value": "1.64e-05", "unit": "s⁻¹"}, {"measurement": "k el", "setting": "[6]; [21]", "value": "1.67e-05", "unit": "s⁻¹"}, {"measurement": "Cmax", "setting": "[6]; human, plasma, po, 0.2 mg", "value": 2.8, "unit": "ng/mL"}, {"measurement": "CL/F", "setting": "[6]; naldemedine 0.2 mg alone or with rifampin 600 mg QD, n = 14, geometric mean (CV %)", "value": "9.19 (19.2) L/h"}, {"measurement": "CL/F", "setting": "[6]; naldemedine 0.2 mg alone or with rifampin 600 mg QD, n = 14, mean (SD)", "value": "9.35 (1.86) L/h"}, {"measurement": "Tmax", "setting": "[6]; naldemedine 0.2 mg alone or with rifampin 600 mg QD, n = 14, median (range)", "value": "1.00 (0.50, 2.50) h"}, {"measurement": "subjects with TEAEs", "setting": "healthy subjects [7]; naldemedine 0.4 mg alone or plus cyclosporine 600 mg", "value": 7.7, "unit": "%"}, {"measurement": "subjects with headache (TEAE)", "setting": "healthy subjects [7]", "value": 7.7, "unit": "%"}, {"measurement": "subjects with TEAEs", "setting": "healthy subjects [1]", "value": 7.1, "unit": "%"}, {"measurement": "subjects with TEAEs", "setting": "healthy subjects [8]", "value": 7.1, "unit": "%"}, {"measurement": "dose linearity of pharmacokinetics", "setting": "healthy subjects [9]; dose range of 0.2–0.4 mg", "value": "linear pharmacokinetics"}, {"measurement": "safety and tolerability", "setting": "healthy subjects [9]; naldemedine doses of 0.1 to 100 mg, healthy subjects", "value": "safe and well tolerated"}, {"measurement": "clinical benefit compared with placebo", "setting": "[10]; naldemedine 0.1 mg", "value": "no significant differences"}, {"measurement": "clinical benefit (spontaneous bowel movements) compared with placebo", "setting": "[10]; naldemedine 0.2- and 0.4-mg doses", "value": "significant clinical benefits"}, {"measurement": "subjects with TEAEs", "setting": "healthy subjects [11]", "value": "no TEAEs"}]}]}
